Laboratory results: publication PMC8754130, “A Peptide from Budding Yeast GAPDH Serves as a Promising Antifungal against Cryptococcus neoformans” (Microbiology Spectrum, 2022)
Values joined by “and” are separate entries in the source; they are usually repeats but may differ in a detail not shown here. Equal values may be shown once.

How the values were obtained:
[1] = test system: Cryptococcus neoformans; assay: organism not typed; conditions: 72 h, 37°C, three independent experiments
Experimental: (§1) The MIC of the peptide was determined using a standardized micro-broth dilution method with a panel of pathogenic yeast strains (C. albicans, […], C. neoformans, and C. gattii) and bacterial strains (Escherichia coli, Micrococcus luteus, Staphylococcus aureus, and Pseudomonas aeruginosa).
(§2) The value of the MIC was defined as the lowest concentration of drugs showing no yeast growth. The MIC was determined by three independent repeats, each repeat in quintuplicate.

[2] = test system: Aspergillus fumigatus; assay: MIC, micro-broth dilution (CLSI M27-A4); type: cell-based; conditions: Aspergillus fumigatus (YJ407), laboratory stock; three independent experiments
Experimental: as §1, §2

[3] = test system: ergosterol in the cell membrane of C. neoformans (H99) cells; assay: Filipin III staining of membrane ergosterol; type: cell-based, Cryptococcus neoformans; conditions: 1 h
Description: All fluorescent images were collected with the confocal microscope (Olympus IX81) at a magnification of ×100 (oil immersion). […] Images were taken using the same confocal microscope described above. […] The fluorescent images of mitochondria were acquired on the confocal microscope (Leica SP8). At least 200 cells per sample were categorized based on their tubular or fragmented mitochondria morphologies. To quantify the fluorescent staining of ergosterol by filipin III, H99 cells with different treatment were stained by filipin III as described ([37]). The fluorescent images were acquired by the IX81 confocal microscope described above. The ImageJ was used to measure the mean fluorescent intensity. The statistical analysis of fluorescent intensity was based on three independent experiments. In each experiment, at least 100 cells were counted in three different visual fields.

[4] = Calcein leakage assay, fungal membrane mimic; conditions: 4 μM; Tris buffer pH 7.4; fluorescence 10 min after addition; 100% = Triton X-100; three independent experiments
Experimental: These experiments were performed as previously described ([34]). Briefly, phospholipid vesicles were prepared from POPC: POPE (at a ratio of 1:4), POPC/POPE/Erg (at a ratio of 5:4:3), and POPC with 40% cholesterol, which mimics the cell membranes of bacterial, fungal, and mammalian cells, respectively. The resulting lipid film was suspended in Tris buffer (20 mM Tris, 100 mM NaCl, and 40 mM calcein, pH 7.4). Extravehicular buffer containing lipid vesicles with entrapped calcein was read in a fluorimeter using excitation at 490 nm and emission at 520 nm. […] The 10% Triton X-100 was used to disrupt lipid vesicles for obtaining the maximum fluorescence intensity.

[5] = test system: C. neoformans H99 cells; assay: Time-killing experiment (killing kinetics); type: cell-based, Cryptococcus neoformans; conditions: 2.5 μM (MIC of melittin), over 4 h, 37°C, RPMI 1640, CFU counting; three independent experiments
Experimental: The time-killing experiment was performed as described ([17]). C. neoformans H99 cells were cultured in RPMI 1640 medium overnight, and the concentration was adjusted to 3 × 10^7 colony-forming units (CFU)/mL. […] Aliquots were taken out to wash and serially diluted 1:10 in RPMI 1640 medium to final concentration of nearly 300 CFU/mL, and plate on the YPD medium at the corresponding time points. After incubating at 37°C for 48 h, colonies were counted to calculate the survival rate. The percentage of CFU of growth control was set as 100%. The percentage of recovering CFU on plates was plotted against time. The data were obtained from three independent experiments.

[6] = test system: C. neoformans protoplasts; assay: Protoplast rupture experiment (microscopy); type: cell-based, Cryptococcus neoformans; conditions: 2.5 μM, 2 h; three experiments
Description: Many antimicrobial peptides form pores in cell membranes to kill cells ([38]). […] To test this hypothesis, C. neoformans protoplasts were adopted for cell rupture experiments. Because the cell walls were digested with enzymes, the unprotected protoplasts could be easily ruptured following peptide-induced pore formation within the cell membrane. Moreover, without the structural support of a cell wall, cell rupture could be clearly observed under the microscope.

[7] = test system: C. neoformans H99 protoplasts; assay: PI staining of protoplasts, flow cytometry; type: cell-based, Cryptococcus neoformans; conditions: 2.5 μM, 1 h; around 30,000 protoplasts per treatment; three independent experiments
Experimental: (§3) H99 cells were cultured in RPMI 1640 medium (Sigma, Shanghai) with 0.165 M MOPS (Sigma, Shanghai) overnight and diluted in fresh medium to an OD600 of 1. For the Annexin V-PI assay, the yeast protoplast preparation kit (BestBio, Shanghai) was used to prepare the protoplasts. […] The TUNEL assay was performed by using the Apoptosis Detection Kit (Yeasen, Shanghai) according to the manufacturer’s instructions. For JC-10 staining, H99 cells were stained by 30 μM JC-10 (Yeasen, Shanghai) and 0.02% Pluronic F-127(Beyotime, Shanghai) at 37°C for 30 min. The intracellular ROS was stained by the incubation with 5 μM H2DCFDA(MCE, Shanghai) at 37°C for 30 min. The stained samples were measured by BD FACSCalibur as described ([58]). The data were analyzed by FlowjoX. All experiments were repeated three times independently.

[8] = test system: C. neoformans H99 protoplasts; assay: Annexin V staining (phosphatidylserine exposure), flow cytometry; type: cell-based, Cryptococcus neoformans; conditions: 2.5 μM, 1 h; three independent experiments
Experimental: as §3

[9] = test system: C. neoformans H99 cells; assay: JC-10 mitochondrial membrane potential assay; type: cell-based, Cryptococcus neoformans; conditions: 8 μM, 37°C, 2 h; JC-10, flow cytometry; three experiments
Experimental: as §3

[10] = strain JEC21, RPMI 1640 + 0.165 M MOPS, lowest concentration showing no yeast growth
[11] = Cryptococcus neoformans, fzc9Δ, FLC-resistant strain derived from H99, RPMI 1640 + 0.165 M MOPS
[12] = Cryptococcus neoformans, gat5Δ, FLC-resistant strain derived from H99, RPMI 1640 + 0.165 M MOPS
[13] = Cryptococcus neoformans, liv4Δ, FLC-resistant strain derived from H99, RPMI 1640 + 0.165 M MOPS

Molecule: C[C@@H]1[C@H](O)[C@@H](C)/C=C/C=C/C=C/C=C/C=C/C=C/C=C/[C@H](O[C@@H]2O[C@H](C)[C@@H](O)[C@H](N)[C@@H]2O)C[C@@H]2O[C@](O)(C[C@@H](O)C[C@@H](O)[C@H](O)CC[C@@H](O)C[C@@H](O)CC(=O)O[C@H]1C)C[C@H](O)[C@H]2C(=O)O [AmB, amphotericin B]
- MIC [1, 10]: 0.4 µM
- MIC ([1]; Cryptococcus neoformans, atf1Δ, AmB-resistant strain derived from H99, RPMI 1640 + 0.165 M MOPS): > 2.2 µM
- MIC [1, 11]: 1.1 µM and 1 µg/mL
- MIC ([1]; Cryptococcus neoformans, fzc51Δ, AmB-resistant strain derived from H99, RPMI 1640 + 0.165 M MOPS): > 2.2 µM and > 2 µg/mL
- MIC [1, 12]: 1.1 µM and 1 µg/mL
- MIC [1, 13]: 1.1 µM and 1 µg/mL
- MIC ([1]; Cryptococcus neoformans, strain H99, RPMI 1640 + 0.165 M MOPS): 1.1 µM and 1 µg/mL
- MIC ([1]; atf1Δ, AmB-resistant strain derived from H99, RPMI 1640 + 0.165 M MOPS): > 2 µg/mL
- MIC [2]: 0.4 µM and 0.37 µg/mL
- filipin III signal ([3]; 1.1 μM): a decreased level of filipin III signal

Molecule: OC(Cn1cncn1)(Cn1cncn1)c1ccc(F)cc1F [FLC, fluconazole]
- MIC [1, 10]: 6.5 µM
- MIC [1, 11]: > 26 µM
- MIC [1, 12]: > 26 µM
- MIC [1, 13]: > 26 µM
- MIC ([1]; fzc9Δ, FLC-resistant strain derived from H99, RPMI 1640 + 0.165 M MOPS): > 8 µg/mL
- MIC ([1]; gat5Δ, FLC-resistant strain derived from H99, RPMI 1640 + 0.165 M MOPS): > 8 µg/mL
- MIC ([1]; liv4Δ, FLC-resistant strain derived from H99, RPMI 1640 + 0.165 M MOPS): > 8 µg/mL
- calcein leakage [4]: did not induce calcein leakage

Molecule: CC[C@H](C)[C@H](NC(=O)CN)C(=O)NCC(=O)N[C@@H](C)C(=O)N[C@H](C(=O)N[C@@H](CC(C)C)C(=O)N[C@@H](CCCCN)C(=O)N[C@H](C(=O)N[C@@H](CC(C)C)C(=O)N[C@H](C(=O)N[C@H](C(=O)NCC(=O)N[C@@H](CC(C)C)C(=O)N1CCC[C@H]1C(=O)N[C@@H](C)C(=O)N[C@@H](CC(C)C)C(=O)N[C@H](C(=O)N[C@@H](CO)C(=O)N[C@@H](Cc1c[nH]c2ccccc12)C(=O)N[C@H](C(=O)N[C@@H](CCCCN)C(=O)N[C@@H](CCCNC(=N)N)C(=O)N[C@@H](CCCCN)C(=O)N[C@@H](CCCNC(=N)N)C(=O)N[C@@H](CCC(N)=O)C(=O)N[C@@H](CCC(N)=O)C(N)=O)[C@@H](C)CC)[C@@H](C)CC)[C@@H](C)O)[C@@H](C)O)C(C)C)C(C)C [melittin]
- MIC ([1]; strain H99, RPMI 1640 + 0.165 M MOPS): 2.5 μM and 7.12 μg/mL
- cells killed [5]: ~70%
- protoplasts ruptured [6]: ~80%
- PI-positive protoplasts [7]: ~70%
- phosphatidylserine exposure (annexin V) [8]: almost no phosphatidylserine exposure

Molecule: C[C@@H]1C/C=C/C=C/C=C/C=C/[C@H](O[C@@H]2O[C@H](C)[C@@H](O)[C@H](N)[C@@H]2O)C[C@@H]2O[C@](O)(C[C@@H](O)C[C@H]3O[C@@H]3/C=C/C(=O)O1)C[C@H](O)[C@H]2C(=O)O [natamycin]
- filipin III signal ([3]; 15 μM): a decreased level of filipin III signal

Molecule: IRIAINGFGRIGRPPPRPPPQRKDIEVVA [control peptide]
- calcein leakage [4]: did not induce calcein leakage
- cells that lost their mitochondrial membrane potential [9]: ~5%
